Results published in the NIST ThermoML archive (doi:10.1021/je0500577).
± gives the expanded uncertainty stated by the source.

Experiments:
[1] = for surface tension liquid-gas: Drop volume; for mass density: 101.33 kPa, Liquid
[2] = xn = mol fraction of the nth substance listed

CC1CCC(C)O1 (stereo not drawn) [2,5-dimethyltetrahydrofuran]
[1]
Conditions	mass density [kg/m3]	surface tension liquid-gas [mN/m]
298.15 K	825.25 ± 0.67	22.93 ± 0.21
313.15 K	–	21.5 ± 0.21

CC1CCC(C)O1 (stereo not drawn) [2,5-dimethyltetrahydrofuran] + BrC1CCCCC1
surface tension liquid-gas [mN/m], [2]
Conditions	298.15 K	313.15 K
x2 = 0	22.93 ± 0.38	21.5 ± 0.37
x2 = 0.0692	23.3 ± 0.38	21.71 ± 0.37
x2 = 0.0908	23.42 ± 0.38	21.83 ± 0.37
x2 = 0.1916	24.03 ± 0.39	22.52 ± 0.37
x2 = 0.2942	24.54 ± 0.39	23.16 ± 0.38
x2 = 0.3981	24.9 ± 0.39	23.73 ± 0.38
x2 = 0.4712	25.17 ± 0.4	24.06 ± 0.39
x2 = 0.5994	25.96 ± 0.4	24.84 ± 0.39
x2 = 0.6382	26.39 ± 0.41	25.15 ± 0.4
x2 = 0.701	–	25.74 ± 0.4
x2 = 0.8032	29.16 ± 0.43	–
x2 = 0.8035	–	27.31 ± 0.41
x2 = 0.8552	30.35 ± 0.44	–
x2 = 0.8558	–	28.4 ± 0.42
x2 = 0.8996	31.47 ± 0.45	–
x2 = 0.9378	32.34 ± 0.46	30.81 ± 0.44

CC1CCC(C)O1 (stereo not drawn) [2,5-dimethyltetrahydrofuran] + ClC1CCCCC1
surface tension liquid-gas [mN/m], [2], Drop volume
Conditions	298.15 K	313.15 K
x2 = 0	22.93 ± 0.21	21.5 ± 0.21
x2 = 0.054	–	21.87 ± 0.21
x2 = 0.0582	23.29 ± 0.22	–
x2 = 0.0998	–	22.15 ± 0.21
x2 = 0.1048	23.51 ± 0.22	–
x2 = 0.1988	24 ± 0.22	–
x2 = 0.202	–	22.76 ± 0.21
x2 = 0.3031	24.46 ± 0.22	–
x2 = 0.3037	–	23.3 ± 0.22
x2 = 0.4025	24.96 ± 0.23	–
x2 = 0.4049	–	23.78 ± 0.22
x2 = 0.5047	25.45 ± 0.23	–
x2 = 0.509	–	24.29 ± 0.22
x2 = 0.6055	–	24.87 ± 0.22
x2 = 0.6071	25.99 ± 0.23	–
x2 = 0.7039	–	25.58 ± 0.23
x2 = 0.7088	26.75 ± 0.24	–
x2 = 0.8075	–	26.61 ± 0.23
x2 = 0.8097	27.83 ± 0.24	–
x2 = 0.9009	29.1 ± 0.25	–
x2 = 0.9065	–	27.94 ± 0.24
x2 = 0.9479	–	28.54 ± 0.25
x2 = 0.9482	29.98 ± 0.25	–

CC1CCCO1 (stereo not drawn) [2-methyltetrahydrofuran]
[1]
Conditions	mass density [kg/m3]	surface tension liquid-gas [mN/m]
298.15 K	849.4 ± 0.64	24.56 ± 0.22
313.15 K	–	23.02 ± 0.21

CC1CCCO1 (stereo not drawn) [2-methyltetrahydrofuran] + BrC1CCCCC1
[2], Drop volume, x2 = 0
Conditions	surface tension liquid-gas [mN/m]
298.15 K	24.56 ± 0.22
313.15 K	23.02 ± 0.21

CC1CCCO1 (stereo not drawn) [2-methyltetrahydrofuran] + ClC1CCCCC1
[2], Drop volume, x2 = 0
Conditions	surface tension liquid-gas [mN/m]
298.15 K	24.56 ± 0.22
313.15 K	23.02 ± 0.21

BrC1CCCCC1 [bromocyclohexane]
[1]
Conditions	mass density [kg/m3]	surface tension liquid-gas [mN/m]
298.15 K	1328.41 ± 1.1	33.63 ± 0.28
313.15 K	–	32.98 ± 0.27

BrC1CCCCC1 [bromocyclohexane] + C1CCOC1
surface tension liquid-gas [mN/m], [2], Drop volume
Conditions	298.15 K	313.15 K
x1 = 0.0528	27.39 ± 0.21	25.66 ± 0.2
x1 = 0.0909	27.62 ± 0.21	25.94 ± 0.2
x1 = 0.1919	28.31 ± 0.22	26.67 ± 0.21
x1 = 0.2954	29.06 ± 0.22	27.39 ± 0.22
x1 = 0.3997	29.82 ± 0.23	28.12 ± 0.22
x1 = 0.5057	30.56 ± 0.24	28.88 ± 0.23
x1 = 0.611	31.24 ± 0.24	29.65 ± 0.24
x1 = 0.7127	31.89 ± 0.25	30.42 ± 0.24
x1 = 0.8064	–	31.18 ± 0.25
x1 = 0.8232	32.56 ± 0.26	–
x1 = 0.8937	32.98 ± 0.27	–
x1 = 0.8994	–	32 ± 0.26
x1 = 0.9467	33.31 ± 0.27	32.44 ± 0.27
x1 = 1	33.63 ± 0.28	32.98 ± 0.27

BrC1CCCCC1 [bromocyclohexane] + C1CCOCC1
surface tension liquid-gas [mN/m], [2], Drop volume
Conditions	298.15 K	313.15 K
x1 = 0.0539	27.62 ± 0.24	25.95 ± 0.23
x1 = 0.098	27.89 ± 0.24	26.32 ± 0.23
x1 = 0.1908	28.45 ± 0.25	27.01 ± 0.24
x1 = 0.296	29.11 ± 0.25	27.7 ± 0.24
x1 = 0.3969	29.75 ± 0.25	28.35 ± 0.24
x1 = 0.4993	30.43 ± 0.26	28.98 ± 0.25
x1 = 0.6178	31.23 ± 0.26	29.74 ± 0.25
x1 = 0.712	31.86 ± 0.26	30.43 ± 0.26
x1 = 0.8067	32.49 ± 0.27	31.23 ± 0.26
x1 = 0.8816	32.95 ± 0.27	31.88 ± 0.26
x1 = 0.9568	33.39 ± 0.27	32.57 ± 0.27
x1 = 1	33.63 ± 0.28	32.98 ± 0.27

BrC1CCCCC1 [bromocyclohexane] + CC1CCC(C)O1
[2], x1 = 1
Conditions	surface tension liquid-gas [mN/m]
298.15 K	33.63 ± 0.47
313.15 K	32.98 ± 0.46

BrC1CCCCC1 [bromocyclohexane] + CC1CCCO1
surface tension liquid-gas [mN/m], [2], Drop volume
Conditions	298.15 K	313.15 K
x1 = 0.042	24.87 ± 0.22	23.36 ± 0.22
x1 = 0.0933	25.28 ± 0.23	23.78 ± 0.22
x1 = 0.1942	26.13 ± 0.23	24.63 ± 0.22
x1 = 0.2908	26.95 ± 0.24	25.48 ± 0.23
x1 = 0.3921	27.82 ± 0.24	26.38 ± 0.23
x1 = 0.5072	28.82 ± 0.25	27.43 ± 0.24
x1 = 0.5896	29.55 ± 0.25	28.19 ± 0.24
x1 = 0.6994	30.58 ± 0.26	29.24 ± 0.25
x1 = 0.8173	31.75 ± 0.26	30.49 ± 0.26
x1 = 0.9043	32.65 ± 0.27	31.55 ± 0.26
x1 = 0.9247	32.86 ± 0.27	31.85 ± 0.26
x1 = 1	33.63 ± 0.28	32.98 ± 0.27

ClC1CCCCC1 [chlorocyclohexane]
[1]
Conditions	mass density [kg/m3]	surface tension liquid-gas [mN/m]
298.15 K	993.17 ± 0.53	31.05 ± 0.26
313.15 K	–	29.44 ± 0.25

ClC1CCCCC1 [chlorocyclohexane] + C1CCOC1
surface tension liquid-gas [mN/m], [2], Drop volume
Conditions	298.15 K	313.15 K
x1 = 0.0361	–	25.39 ± 0.2
x1 = 0.0362	27.27 ± 0.21	–
x1 = 0.0727	–	25.56 ± 0.2
x1 = 0.0728	27.43 ± 0.21	–
x1 = 0.1434	–	25.88 ± 0.2
x1 = 0.1442	27.73 ± 0.21	–
x1 = 0.2257	–	26.25 ± 0.21
x1 = 0.2258	28.07 ± 0.22	–
x1 = 0.3114	28.43 ± 0.22	26.66 ± 0.21
x1 = 0.4061	28.82 ± 0.23	27.09 ± 0.22
x1 = 0.5071	–	27.52 ± 0.22
x1 = 0.5093	29.25 ± 0.23	–
x1 = 0.6163	29.68 ± 0.24	–
x1 = 0.6173	–	27.96 ± 0.23
x1 = 0.7351	–	28.42 ± 0.23
x1 = 0.7359	30.11 ± 0.24	–
x1 = 0.8582	–	28.89 ± 0.24
x1 = 0.8602	30.54 ± 0.25	–
x1 = 0.9267	30.77 ± 0.26	–
x1 = 0.9291	–	29.16 ± 0.25
x1 = 1	31.05 ± 0.26	29.44 ± 0.25

ClC1CCCCC1 [chlorocyclohexane] + C1CCOCC1
surface tension liquid-gas [mN/m], [2], Drop volume
Conditions	298.15 K	313.15 K
x1 = 0.044	–	25.64 ± 0.23
x1 = 0.0446	27.44 ± 0.24	–
x1 = 0.085	27.58 ± 0.24	–
x1 = 0.0854	–	25.82 ± 0.23
x1 = 0.1668	–	26.17 ± 0.23
x1 = 0.1673	27.88 ± 0.24	–
x1 = 0.2584	28.23 ± 0.24	–
x1 = 0.259	–	26.55 ± 0.23
x1 = 0.3519	28.62 ± 0.25	–
x1 = 0.3527	–	26.94 ± 0.24
x1 = 0.4499	–	27.33 ± 0.24
x1 = 0.4501	29.01 ± 0.25	–
x1 = 0.5511	29.41 ± 0.25	–
x1 = 0.5923	–	27.91 ± 0.24
x1 = 0.6578	–	28.17 ± 0.24
x1 = 0.658	29.82 ± 0.25	–
x1 = 0.7676	30.24 ± 0.26	–
x1 = 0.7693	–	28.6 ± 0.25
x1 = 0.8744	30.62 ± 0.26	–
x1 = 0.8809	–	29.02 ± 0.25
x1 = 0.9385	–	29.22 ± 0.25
x1 = 0.9393	30.84 ± 0.26	–
x1 = 1	31.05 ± 0.26	29.44 ± 0.25

ClC1CCCCC1 [chlorocyclohexane] + CC1CCC(C)O1
[2], Drop volume, x1 = 1
Conditions	surface tension liquid-gas [mN/m]
298.15 K	31.05 ± 0.26
313.15 K	29.44 ± 0.25

ClC1CCCCC1 [chlorocyclohexane] + CC1CCCO1
surface tension liquid-gas [mN/m], [2], Drop volume
Conditions	298.15 K	313.15 K
x1 = 0.0434	–	23.23 ± 0.22
x1 = 0.0471	24.85 ± 0.22	–
x1 = 0.0868	–	23.44 ± 0.22
x1 = 0.0884	25.11 ± 0.23	–
x1 = 0.1719	–	23.93 ± 0.22
x1 = 0.1722	25.63 ± 0.23	–
x1 = 0.2652	26.2 ± 0.23	–
x1 = 0.2653	–	24.47 ± 0.22
x1 = 0.3536	–	25 ± 0.23
x1 = 0.3605	26.81 ± 0.24	–
x1 = 0.4587	27.44 ± 0.24	–
x1 = 0.4591	–	25.65 ± 0.23
x1 = 0.5615	28.15 ± 0.24	–
x1 = 0.5618	–	26.31 ± 0.23
x1 = 0.6654	28.86 ± 0.25	–
x1 = 0.6677	–	27.03 ± 0.24
x1 = 0.7734	–	27.78 ± 0.24
x1 = 0.7761	29.62 ± 0.25	–
x1 = 0.8805	–	28.58 ± 0.25
x1 = 0.8856	30.34 ± 0.26	–
x1 = 0.9404	–	29 ± 0.25
x1 = 0.9418	30.7 ± 0.26	–
x1 = 1	31.05 ± 0.26	29.44 ± 0.25

C1CCOC1 [tetrahydrofuran]
[1]
Conditions	mass density [kg/m3]	surface tension liquid-gas [mN/m]
298.15 K	882.1 ± 0.45	27.12 ± 0.21
313.15 K	–	25.24 ± 0.2

C1CCOC1 [tetrahydrofuran] + BrC1CCCCC1
[2], Drop volume, x2 = 0
Conditions	surface tension liquid-gas [mN/m]
298.15 K	27.12 ± 0.21
313.15 K	25.24 ± 0.2

C1CCOC1 [tetrahydrofuran] + ClC1CCCCC1
[2], Drop volume, x2 = 0
Conditions	surface tension liquid-gas [mN/m]
298.15 K	27.12 ± 0.21
313.15 K	25.24 ± 0.2

C1CCOCC1 [tetrahydropyran]
[1]
Conditions	mass density [kg/m3]	surface tension liquid-gas [mN/m]
298.15 K	878.82 ± 0.61	27.29 ± 0.24
313.15 K	–	25.46 ± 0.23

C1CCOCC1 [tetrahydropyran] + BrC1CCCCC1
[2], Drop volume, x2 = 0
Conditions	surface tension liquid-gas [mN/m]
298.15 K	27.29 ± 0.24
313.15 K	25.46 ± 0.23

C1CCOCC1 [tetrahydropyran] + ClC1CCCCC1
[2], Drop volume, x2 = 0
Conditions	surface tension liquid-gas [mN/m]
298.15 K	27.29 ± 0.24
313.15 K	25.46 ± 0.23
